Results taken from patent US9662329B2, “Use of survivin antagonists in polyomavirus-related disease” (University of Pittsburgh—Of the Commonwealth System of …, priority 2012, dated 2017).

How the values were obtained:
[1] = test system: MKL-2; assay: Cell Titer Glo dose-response study; format: cell-based, human; settings: Homo sapiens, read-out: EC50 concentrations for MCC cell lines, MKL-2
From the text: (§1) Seven Merkel cell carcinoma cell lines: MKL-1, MKL-2, MS-1, UISO, MCC13, MCC26 and WaGa (kind gift of Jurgen Becker (Houben et al., Merkel cell polyomavirus-infected Merkel cell carcinoma cells require expression of viral T antigens. J Virol 84, 7064 (July, 2010); Ronan et al., Merkel cell carcinoma: in vitro and in vivo characteristics of a new cell line. J Am Acad Dermatol 29, 715 (November, 1993); Rosen et al., Establishment and characterization of a neuroendocrine skin carcinoma cell line. Lab Invest 56, 302 (March, 1987)); NCI-H69 small cell lung cancer cell line (ATCC); 293 human embryonic kidney cells (ATCC); U2OS osteosarcoma cell line (kind gift of Ole Gjoerup); BJhTERT immortalized foreskin fibroblast cell line (kind gift of Ole Gjoerup); and BJ primary foreskin fibroblasts (ATCC) were used to screen and evaluate the small molecules examined in this study (Houben et al., J Virol 84, 7064 (July, 2010); Ronan et al., J Am Acad Dermatol 29, 715 (November, 1993); Rosen et al., Lab Invest 56, 302 (March, 1987)). The Merkel cell lines and NCI-H69 were grown in RPMI 1640 supplemented with 10% fetal calf serum, penicillin and streptomycin at 37° C. in humidified air containing 5% CO2. The remaining cell lines were grown in DMEM supplemented with 10% fetal calf serum.
(§2) For EC50 measurements, dose-response curves were established for 17 drugs obtained individually in bulk stocks. Iodoacetamide (I1149), sanguarine chloride (S5890), NSC95397 (N1786), chelerythrine chloride (C2932), calmidazolium chloride (C3930), tetraethylthiuram disulfide (T1132), bay 11-7085 (B5681), quinacrine dihydro chloride (Q3251), ellipticine (E3380), amsacrine hydrochloride (A9809) and nutlin-3 (N6287) were purchased from Sigma Aldrich, USA.
(§3) Compounds that met the selection criteria <10% cell survival were purchased or obtained in bulk from NCI/NIH Developmental Therapeutics Program. Serial drug dilutions from 10^−4 M to 10^−9 M were used on MCC and non-MCC cell lines. Cells were seeded into 384-well plates at 6000 cells in 50 μl of medium per well. After 24 hours, 25 μl of 3× drugs were added at increasing concentration to each well. Cell viability was then measured using Cell Titer Glo (Promega) kit following manufacturer's instructions as described previously. Each drug concentration was tested in triplicate for each cell line and experiments were repeated twice. EC50 doses for the drugs were calculated using a four parameter logistic equation (GraphPad Prism).

[2] = test system: MKL-1; assay: Cell Titer Glo dose-response study; format: cell-based, human; settings: Homo sapiens, MKL-1, read-out: EC50 concentrations for MCC cell lines, MKL-1
From the text: as §1, §2, §3

[3] = test system: MS-1; assay: Cell Titer Glo dose-response study; format: cell-based, human; settings: Homo sapiens, MS-1, read-out: EC50 concentrations for MCC cell lines, MS-1
From the text: as §1, §2, §3

[4] = test system: UISO; assay: Cell Titer Glo dose-response study; format: cell-based, human; settings: Homo sapiens, read-out: EC50 concentrations for MCC cell lines, UISO
From the text: as §1, §2, §3

[5] = test system: WaGa; assay: Cell Titer Glo dose-response study; format: cell-based, human; settings: Homo sapiens, read-out: EC50 concentrations for MCC cell lines, WaGa
From the text: as §1, §2, §3

[6] = test system: MCC cell lines; assay: cells; settings: Homo sapiens, read-out: EC50, active in vitro at low doses
Experimental: as §3, with “Serial” for “Compounds that met the selection criteria <10% cell survival were purchased or obtained in bulk from NCI/NIH Developmental Therapeutics Program. Serial”

[7] = test system: MKL-1 cells; assay: Immunoblotting for cPARP, cCaspase 3 and LC3; format: cell-based, human; settings: 100 nM, 48 hours
[8] = test system: human MKL-1 MCC xenografts
Experimental: Compounds were dissolved in sterile 0.9% saline solution for administration to animals.
Six-week-old female triple immune-deficient NSG (Nod-SCID gamma) mice (Jackson Laboratory) were maintained in a specific pathogen-free environment.
MCC cells were checked for viability >90% by trypan blue staining, resuspended in PBS (2×10^7 cells in 100 μl) and inoculated subcutaneously into the right flank of mice.
All treatments were delivered for three consecutive weeks. […] YM-155 (2 mg/kg) was given intraperitoneally on five consecutive days, followed by a two-day treatment free interval.
Two-tailed paired Student's t test was used to analyze statistical differences in qRT-PCR results. Mouse survival curves were estimated using the Kaplan-Meier product-limit method and were compared using the log-rank test (GraphPad Software, La Jolla, Calif.). A piecewise linear hierarchical Bayesian model (Zhao et al., Bayesian hierarchical changepoint methods in modeling the tumor growth profiles in xenograft experiments. Clinical Cancer Res 17, 1057 (Mar. 1, 2011)) was used to characterize differences in tumor volumes and growth between treatments.
Cells of Merkel cell polyomavirus (+) carcinoma cell lines MKL-1, MS-1, WaGa, and MKL-2 were checked for viability >90% by trypan blue staining, resuspended in PBS (2×10^7 cells in 100 μl) and inoculated subcutaneously into the right flank of mice.
YM-155 was given intraperitoneally on five consecutive days, followed by a two-day treatment free interval. For YM155 this treatment continued for three weeks or until mice were euthanized. Mice were euthanized upon showing a tumor having a diameter of 20 mm, or upon a showing of significant distress (>20% weight loss or when they became moribund). Caliper measurements of the longest perpendicular tumor diameters were performed every other day and tumor volumes were calculated using the formula: (width)^2×(length/2). Survival was defined as time from the first day of treatment until death/sacrifice.

[9] = Example 2, 1 mg/kg for three weeks
[10] = three weeks treatment, bortezomib 1 mg/kg twice weekly, YM155 2 mg/kg 5 times weekly

Structure (SMILES): CC(C)C[C@H](NC(=O)[C@H](Cc1ccccc1)NC(=O)c1cnccn1)B(O)O [Bortezomib]
- EC50 [1]: 5 nM
- EC50 [2]: 13 nM
- EC50 [3]: 2 nM
- EC50 [4]: 3 nM
- EC50 [5]: 1 nM
- EC50 [6]: 1.3 to 13.2 nM
- apoptosis measured by caspase 3 and PARP cleavage [7]: activated PARP and caspase cleavage
- survival compared to saline [8, 9]: survived as long as those receiving saline
- time after treatment began at which the last animal died [8, 9]: approximately one month
- tolerability / adverse effects in mice ([8]; bortezomib 1 mg/kg twice weekly, YM155 2 mg/kg 5 times weekly): associated with mouse lethargy and weight loss
- mice dying during treatment (up to day 19) [8, 10]: 67%
- xenograft tumor growth / progression during treatment [8, 10]: did not significantly affect MCC tumor progression or volume
